Experimental data from ChEMBL document CHEMBL4118167, “Discovery of bicyclo[3,3,1]non-2-ene as a novel skeleton for HIF-1 inhibitors” (Bioorg Med Chem, 2018).
Active and inactive are the calls of the source. No cut-off for these calls is given here.

How the values were obtained:
Assay type in all cases: cell-based
[1] = tested on: HeLa; assay: Cytotoxicity against human HeLa cells at 0.3 to 100 uM
[2] = target: T1, HIF1A/p300/CREB-binding protein (Homo sapiens, UniProt Q09472+Q16665+Q92793); assay: Inhibition of HIF-1alpha/p300/CBP (unknown origin) transcriptional activity expressed in human HeLa cells expressing HRE-Luc/CMV-Luc after 12 hrs under hypoxic condition by dual luciferase reporter gene assay
[3] = target: T1, HIF1A/p300/CREB-binding protein; assay: Inhibition of HIF-1alpha/p300/CBP PPI in human HeLa cells assessed as […] of HIF-1alpha accumulation at 3 to 30 uM after 12 hrs under hypoxic condition by Western blot analysis
[4] = target: T1, HIF1A/p300/CREB-binding protein; assay: Inhibition of HIF-1alpha/p300/CBP PPI in human HeLa cells assessed as HIF-1alpha mRNA levels by measuring HIF-1alpha to beta2-microglobulin ratio at 30 uM after 12 hrs under hypoxic condition by qPCR analysis (reference value: 0.90 +/- 0.23)
[5] = target: T1, HIF1A/p300/CREB-binding protein; assay: Inhibition of HIF-1alpha/p300/CBP PPI in human HeLa cells assessed as reduction in HIF-1alpha proteasomal degradation after 12 hrs under hypoxic condition in presence of proteasome inhibitor MG132 by Western blot analysis

| SMILES | Activity [1] | IC50 [2] | inhibition [3] | Ratio [4] | inhibition [5] |
| --- | --- | --- | --- | --- | --- |
| CC(C)CCOC(=O)C1=C(O)CC2(O)CCCC1C2 (configuration not stated) | Non-Toxic | > 100 µM | – | – | – |
| CC(C)CC(=O)OC1=C(C(=O)OCc2ccccc2)C2CCCC(OC(=O)CC(C)C)(C1)C2 (configuration not stated) | Non-Toxic | 3 µM | inactive | 1.2 | Dose-dependent effect |
| OCc1ccc(-c2nn(Cc3ccccc3)c3ccccc23)o1 | Non-Toxic | – | – | – | – |
| CC(C)CCOC(=O)C1=C(OC(=O)CC(C)C)CC2(OC(=O)CC(C)C)CCCC1C2 (configuration not stated) | Non-Toxic | 6.3 µM | – | – | – |
| O=C(OCc1ccccc1)C1=C(O)CC2(O)CCCC1C2 (configuration not stated) | Non-Toxic | > 100 µM | – | – | – |
